Test results reported in publication PMC2707616, “Platensimycin Activity against Mycobacterial β-Ketoacyl-ACP Synthases” (PLoS ONE, 2009).
Converted amounts (≈) assume the structure as drawn. Read-outs that look alike come from different tables or passages of the source.

Key:
[1] = system: KasA; conditions: cited from earlier work
[2] = system: KasB; conditions: KasB ref 25; cited from earlier work
[3] = system: S. aureus FabH; set-up: method as in PMID 17456595; conditions: S. aureus FabH ref 2; cited from earlier work
[4] = system: M. tuberculosis CDC1551; test: microbe, parasite or virus in culture; assay type: cell-based; conditions: Mycobacterium tuberculosis; M. tuberculosis CDC1551, solid medium
[5] = system: M. tuberculosis H37Rv; test: microbe, parasite or virus in culture; assay type: cell-based; conditions: Mycobacterium tuberculosis, solid medium
[6] = system: M. smegmatis mc^2155; test: MIC99 by Alamar Blue testing, liquid medium; assay type: cell-based, Mycobacterium smegmatis; conditions: Mycolicibacterium smegmatis
[7] = system: M. smegmatis pVV16; test: MIC99 by Alamar Blue testing, vector control strain; assay type: cell-based, Mycobacterium smegmatis; conditions: Mycolicibacterium smegmatis
[8] = system: M. smegmatis pVV16- KasA; test: microbe, parasite or virus in culture; assay type: cell-based, Mycobacterium smegmatis
[9] = system: M. smegmatis pVV16- KasB; test: microbe, parasite or virus in culture; assay type: cell-based, Mycobacterium smegmatis
[10] = system: M. smegmatis pVV16- KasAB; test: microbe, parasite or virus in culture; assay type: cell-based, Mycobacterium smegmatis; conditions: Mycolicibacterium smegmatis, PVV16KASAB
[11] = system: M. smegmatis pVV16- FabH; test: microbe, parasite or virus in culture; assay type: cell-based, Mycobacterium smegmatis; conditions: Mycolicibacterium smegmatis, PVV16FABH
[12] = system: M. bovis BCG; test: microbe, parasite or virus in culture; assay type: cell-based
[13] = system: M. bovis BCG pVV16; test: microbe, parasite or virus in culture; assay type: cell-based; conditions: Mycobacterium tuberculosis variant bovis BCG
[14] = system: M. bovis BCG pVV16- KasA; test: microbe, parasite or virus in culture; assay type: cell-based; conditions: Mycobacterium tuberculosis variant bovis BCG
[15] = system: M. bovis BCG pVV16- KasB; test: microbe, parasite or virus in culture; assay type: cell-based; conditions: Mycobacterium tuberculosis variant bovis BCG
[16] = system: M. bovis BCGΔ KasB; assay type: cell-based, Mycobacterium bovis BCG
[17] = biological target: T1, Mt-KasA (Mycobacterium tuberculosis, UniProt P9WQD9); test: biochemical
T1 construct: made in house

[18] = biological target: T2, Mt-KasB (Mycobacterium tuberculosis, UniProt P9WQD7); test: biochemical
T2 construct: made in house

[19] = biological target: T3, Mt-FabH (Mycobacterium tuberculosis, UniProt P9WNG3); test: biochemical
T3 construct: made in house

[20] = system: Cg-FAS-I; test: FAS-I activity in crude cell free extracts; assay type: biochemical, C. glutamicum; conditions: crude cell free extract, standard error in brackets
Description: FAS-I extracts from M. smegmatis and C. glutamicum were prepared as described previously. FAS-I experiments were conducted as described using the 40–80% ammonium sulfate fraction. Briefly, platensimycin was titred (0.1–150 µg/ml) into the standard reaction as follows: 100 mM potassium phosphate pH 7.0, 5 mM EDTA, 5 mM dithiothreitol, 300 µM acetyl-CoA, 100 µM NADPH, 100 µM NADH, 1 µM flavin mononucleotide, 500 µM α-cyclodextrin, 20 µM malonyl-CoA, 100,000 cpm of [2-^14C] malonyl-CoA, and 100 µl of the cytosolic enzyme preparation (1 mg of protein) in a total volume of 500 µl. Reactions were performed in triplicate at 37°C for 1 h and terminated by the addition of 500 µl of 20% potassium hydroxide in 50% methanol at 100°C for 30 min. Following acidification with 300 µl of 6 M HCl, the resultant [^14C]-labelled fatty acids were extracted three times with petroleum ether. The organic extracts were pooled, washed once with an equal volume of water, and dried in a scintillation vial prior to scintillation counting using 5 ml of EcoScintA (National Diagnostics, Hull, U.K.).

[21] = system: M. smegmatis; test: Growth and viable count (CFU) of cultures over 72 h, revival after washing; assay type: cell-based, Mycobacterium smegmatis
[22] = system: M. smegmatis mc^2155; assay type: cell-based, Mycobacterium smegmatis
[23] = system: C. glutamicum; test: Growth of cultures; assay type: cell-based; conditions: data not shown
[24] = system: Candida albicans; set-up: method as in PMID 16710421; conditions: cited from earlier work
[25] = system: human FAS-I; set-up: method as in earlier work; conditions: cited from earlier work
[26] = system: rat FAS-I; set-up: method as in earlier work; conditions: cited from earlier work
[27] = system: HeLa; conditions: mammalian cell toxicity ref 3; cited from earlier work

T2 sequence (P9WQD7 whole entry): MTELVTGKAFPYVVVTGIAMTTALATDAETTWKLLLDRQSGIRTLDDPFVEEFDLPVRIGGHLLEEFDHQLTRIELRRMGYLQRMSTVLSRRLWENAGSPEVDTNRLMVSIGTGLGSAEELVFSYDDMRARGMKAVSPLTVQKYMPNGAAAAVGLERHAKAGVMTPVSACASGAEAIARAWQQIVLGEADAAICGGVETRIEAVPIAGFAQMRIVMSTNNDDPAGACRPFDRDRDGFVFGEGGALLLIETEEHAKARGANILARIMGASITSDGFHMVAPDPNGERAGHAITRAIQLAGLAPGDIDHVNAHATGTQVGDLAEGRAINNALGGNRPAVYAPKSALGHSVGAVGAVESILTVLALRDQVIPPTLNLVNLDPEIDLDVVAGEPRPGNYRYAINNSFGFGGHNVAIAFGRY
T3 sequence (P9WNG3 whole entry): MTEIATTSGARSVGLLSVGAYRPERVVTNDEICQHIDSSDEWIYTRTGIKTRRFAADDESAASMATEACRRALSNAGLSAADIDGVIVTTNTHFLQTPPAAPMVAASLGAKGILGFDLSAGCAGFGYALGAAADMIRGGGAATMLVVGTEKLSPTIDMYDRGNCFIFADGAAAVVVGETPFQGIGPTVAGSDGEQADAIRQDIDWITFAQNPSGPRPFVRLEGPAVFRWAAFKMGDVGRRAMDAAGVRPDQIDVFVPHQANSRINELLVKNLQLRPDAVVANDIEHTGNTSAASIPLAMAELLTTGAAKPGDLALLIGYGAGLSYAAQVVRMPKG
T1 sequence (P9WQD9 whole entry): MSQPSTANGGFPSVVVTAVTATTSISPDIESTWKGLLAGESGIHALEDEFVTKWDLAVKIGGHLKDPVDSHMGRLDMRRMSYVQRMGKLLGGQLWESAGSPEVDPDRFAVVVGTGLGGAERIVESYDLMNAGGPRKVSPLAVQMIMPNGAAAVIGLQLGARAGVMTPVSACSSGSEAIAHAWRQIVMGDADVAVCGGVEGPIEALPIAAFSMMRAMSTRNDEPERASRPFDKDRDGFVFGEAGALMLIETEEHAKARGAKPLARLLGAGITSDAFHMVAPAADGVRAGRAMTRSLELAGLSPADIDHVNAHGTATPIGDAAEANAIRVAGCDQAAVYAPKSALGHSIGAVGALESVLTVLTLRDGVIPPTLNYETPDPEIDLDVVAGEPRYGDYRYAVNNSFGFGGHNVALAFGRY

C=C/C(C)=C/[C@@]1(C)SC(=O)C(C)=C1O [TLM, thiolactomycin]
IC50 [1]: 20 µM
IC50 [2]: 90 µM

C=C1C[C@@]23C=CC(=O)[C@@](C)(CCC(=O)Nc4c(O)ccc(C(=O)O)c4O)[C@@H]2C[C@@H]1CC3 [platencin]
IC50 [3]: 9.17 µM

CC12C[C@@]34C=CC(=O)[C@@](C)(CCC(=O)Nc5c(O)ccc(C(=O)O)c5O)C3[C@H](CC1C4)O2 (stereo partly drawn) [platensimycin]
MIC99 [4]: 12 µg/mL (≈ 27.2 µM)
MIC99 [5]: 12 µg/mL (≈ 27.2 µM)
MIC99 [6]: 14 µg/mL (≈ 31.7 µM)
MIC99 [7]: 14 µg/mL (≈ 31.7 µM)
increase in resistance (MIC) on Mt-KasA overexpression ([8]; MIC from 14 to 30 µg/ml): 2 fold
MIC99 ([8]; Mycolicibacterium smegmatis, PVV16KASA, M. smegmatis pVV16- KasA): 30 µg/mL (≈ 68 µM)
increase in the MIC on Mt-KasB overexpression ([9]; MIC to 124 µg/ml): 9 fold
MIC99 ([9]; Mycolicibacterium smegmatis, PVV16KASB, M. smegmatis pVV16- KasB): 124 µg/mL (≈ 281 µM)
MIC99 [10]: 126 µg/mL (≈ 285 µM)
MIC99 [11]: 16 µg/mL (≈ 36.2 µM)
MIC99 [12]: >128 µg/mL
MIC99 ([12]; Mycobacterium tuberculosis variant bovis BCG, read-out: MIC99): > 128 µg/mL
MIC99 [13]: > 128 µg/mL
MIC99 [14]: > 128 µg/mL
MIC99 [15]: > 128 µg/mL
MIC99 [16]: 61 µg/mL (≈ 138 µM)
IC50 [17]: 4.53 µM
IC50 ([17]; standard error in brackets): 4.53 µM
IC50 [18]: 9.51 µM
IC50 ([18]; standard error in brackets): 9.51 µM
IC50 [19]: > 340 µM
IC50 [20]: 6.5 (0.2) µg/ml
decrease in CFU ([21]; 14 µg/ml platensimycin, 72 hours, LB broth): 2 log
nature of the antibiotic effect (revival after washing and re-inoculation) ([21]; cells exposed for 72 hours): bacteristatic
Biosynthesis of fatty acids and α- and epoxy-mycolic acids ([22]; 20–40 µg/ml, [14C]acetate labelling): significantly inhibited
α′-MAMEs level ([22]; lower concentrations, 10–20 µg/ml): accumulation
synthesis of mycolate containing lipids GMM and TDM ([22]; platensimycin-treated cultures, 20-40 µg/ml): reduced
growth of cultures of C. glutamicum [23]: failed to inhibit growth
IC50 [3]: 67 µM
antifungal activity against Candida albicans [24]: > 64 µg/mL
human FAS-I inhibition in vitro [25]: inhibited
rat FAS-I inhibition in vitro [26]: inhibited
IC50 of HeLa MTT [27]: > 1000 µg/mL
